Series [1] deals with parental wild-type Ba/F3 cells. The series can be described thus: Ba/F3 (WT) cell proliferation assay (Alamar Blue). In kind it is cell-based. Particulars: Mus musculus; for inhibition at 3 µM / inhibition at 1 µM / inhibition at 10 µM: BaF3, read-out: BaF3 WT prolif, % inhibition; for IC50: BaF3, 72 hours, Alamar Blue, read-out: BaF3 WT prolif. For orientation: The colour change of resazurin is a common sign of viable cells or microbes.

Series [2] deals with LP-1 cell line (FGF-1/Heparin induced pERK). The series can be described thus: Cell-based pERK ELISA, LP-1 cells. Particulars: Homo sapiens, LP-1, read-out: LP-1 pERK ELISA (μM). In general terms: In an ELISA, binding on a coated surface is turned into a signal by an enzyme label.
The target of a further series is VEGFR2 (Homo sapiens (Human), UniProt P35968). Put plainly: VEGFR2 in vitro kinase inhibitory activity assay (TRF, Flt3 substrate). In kind it is biochemical. Particulars: for inhibition at 1 µM: 1 h, read-out: VEGFR2 % I.
VEGFR2, sequence (P35968 20-1356): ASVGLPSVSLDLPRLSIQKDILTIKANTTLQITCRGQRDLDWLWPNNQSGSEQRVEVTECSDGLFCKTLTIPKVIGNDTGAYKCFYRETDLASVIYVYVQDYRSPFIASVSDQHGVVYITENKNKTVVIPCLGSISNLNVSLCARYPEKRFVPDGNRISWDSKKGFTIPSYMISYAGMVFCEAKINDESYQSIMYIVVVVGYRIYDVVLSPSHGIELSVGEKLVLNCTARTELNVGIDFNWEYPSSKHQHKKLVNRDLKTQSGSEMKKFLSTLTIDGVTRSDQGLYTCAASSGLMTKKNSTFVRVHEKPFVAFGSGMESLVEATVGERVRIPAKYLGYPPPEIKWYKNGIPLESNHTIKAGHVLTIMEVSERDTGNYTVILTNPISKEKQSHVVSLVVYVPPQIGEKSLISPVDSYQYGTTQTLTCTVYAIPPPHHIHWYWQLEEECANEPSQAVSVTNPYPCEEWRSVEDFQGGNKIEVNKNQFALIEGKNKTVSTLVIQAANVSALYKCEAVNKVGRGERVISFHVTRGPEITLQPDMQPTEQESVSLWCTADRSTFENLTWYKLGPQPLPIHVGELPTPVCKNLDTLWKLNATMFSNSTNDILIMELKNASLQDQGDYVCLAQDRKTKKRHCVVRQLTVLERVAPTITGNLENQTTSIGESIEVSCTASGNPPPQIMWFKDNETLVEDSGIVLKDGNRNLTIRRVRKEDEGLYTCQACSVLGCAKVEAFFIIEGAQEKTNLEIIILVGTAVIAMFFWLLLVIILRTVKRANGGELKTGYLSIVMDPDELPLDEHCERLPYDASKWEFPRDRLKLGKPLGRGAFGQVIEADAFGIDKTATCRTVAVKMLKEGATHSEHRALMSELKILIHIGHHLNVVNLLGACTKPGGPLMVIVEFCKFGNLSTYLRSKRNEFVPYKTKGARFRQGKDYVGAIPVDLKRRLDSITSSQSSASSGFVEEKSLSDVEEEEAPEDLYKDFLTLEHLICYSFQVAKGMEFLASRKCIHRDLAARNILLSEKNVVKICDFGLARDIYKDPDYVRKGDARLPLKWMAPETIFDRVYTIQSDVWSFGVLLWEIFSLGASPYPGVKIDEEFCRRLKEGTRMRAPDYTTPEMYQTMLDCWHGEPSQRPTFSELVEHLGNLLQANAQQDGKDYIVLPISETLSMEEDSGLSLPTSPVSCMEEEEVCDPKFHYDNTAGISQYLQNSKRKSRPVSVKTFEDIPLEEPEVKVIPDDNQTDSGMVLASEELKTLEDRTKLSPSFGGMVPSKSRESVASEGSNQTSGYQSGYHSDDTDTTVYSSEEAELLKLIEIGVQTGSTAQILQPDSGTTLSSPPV
Another series relates to Ba/F3-TEL-FGFR3 cells. The series can be described thus: Ba/F3-TEL-FGFR3 cell proliferation assay (Alamar Blue). In kind it is cell-based. As to conditions: 72 hours, Alamar Blue; read-out: BaF3-TEL-FGFR3 prolif.
A further series concerns the target FGFR3 (Homo sapiens (Human), UniProt P22607). Put plainly: FGFR3 in vitro kinase inhibitory activity assay (TRF). Particulars: 3 h, read-out: FGFR3 % I.

Experimental findings from patent publication US8796244B2, “Imidazopyridine derivatives as inhibitors of receptor tyrosine kinases” (Astex Therapeutics Ltd, priority 2008, dated 2014) are described below.

A value given as a limit tells only on which side of the number the result lay.

As a reminder, the melting point is the temperature of the solid-liquid transition.

FGFR3, sequence (P22607 23-806): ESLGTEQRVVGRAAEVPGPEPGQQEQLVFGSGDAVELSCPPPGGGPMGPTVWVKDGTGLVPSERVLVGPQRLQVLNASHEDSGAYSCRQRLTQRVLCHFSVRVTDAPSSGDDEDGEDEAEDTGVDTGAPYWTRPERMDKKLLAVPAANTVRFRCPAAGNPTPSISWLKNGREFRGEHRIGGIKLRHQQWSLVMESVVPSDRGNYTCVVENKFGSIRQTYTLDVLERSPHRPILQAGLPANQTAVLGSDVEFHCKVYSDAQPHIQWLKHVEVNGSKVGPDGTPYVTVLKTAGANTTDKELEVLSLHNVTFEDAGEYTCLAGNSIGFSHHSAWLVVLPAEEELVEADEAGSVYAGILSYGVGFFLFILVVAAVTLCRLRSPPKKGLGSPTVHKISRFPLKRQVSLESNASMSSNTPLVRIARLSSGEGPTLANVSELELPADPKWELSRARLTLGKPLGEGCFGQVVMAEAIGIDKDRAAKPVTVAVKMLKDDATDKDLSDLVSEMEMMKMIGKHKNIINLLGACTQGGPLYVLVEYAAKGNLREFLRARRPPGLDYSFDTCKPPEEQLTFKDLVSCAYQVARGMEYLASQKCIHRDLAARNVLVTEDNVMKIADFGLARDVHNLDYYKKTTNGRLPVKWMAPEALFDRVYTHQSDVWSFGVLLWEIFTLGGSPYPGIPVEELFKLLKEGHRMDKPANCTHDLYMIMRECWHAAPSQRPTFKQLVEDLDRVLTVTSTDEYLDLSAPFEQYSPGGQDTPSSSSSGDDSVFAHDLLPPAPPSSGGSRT

Consider `O=C(NCC(F)(F)F)Nc1cccc(-c2cnc3cc(-c4nnc(NC5CC5)s4)ccn23)c1` [Compound 250], for which the melting point is above 280 °C. Besides, in series [1], the inhibition at 3 µM worked out at 25% and the IC50 amounted to 1730 nM. The IC50 in series [2] is 0.075 µM.
For the molecule `COc1cc(NC(=O)NCC(F)(F)F)cc(-c2cnc3cc(-c4ncc(F)c(N)n4)ccn23)c1` [Compound 252], the melting point stood at 154 °C. The same molecule had an IC50 at VEGFR2 above 1000 nM. Further, the inhibition at 1 µM in series [1] came to 0%.
In turn, `N#Cc1ccc(-c2ccn3c(-c4cccc(NC(=O)NCC(F)(F)F)c4)cnc3c2)nn1` [Compound 255] came in with a melting point of 267 °C. In addition, the inhibition at 10 µM in series [1] turned out to be 0%.
Molecule `CC(C)(O)c1cnc(-c2ccn3c(-c4cccc(NC(=O)NCC(F)(F)F)c4)cnc3c2)nc1` [Compound 257] registered a melting point of 146 °C. In addition, in series [1], the IC50 amounted to 3900 nM.
The molecule `Nc1nc(-c2ccn3c(-c4cc(NC(=O)NCC(F)(F)F)cc(C(F)(F)F)c4)cnc3c2)ncc1F` [Compound 258] came in with a melting point of 185 °C. The inhibition at 1 µM at VEGFR2 amounted to 37%. In addition, the inhibition at 3 µM in series [1] turned out to be 36%.
Molecule `Nc1nc(-c2ccn3c(-c4cccc(NC(=O)NCC(F)(F)F)c4)cnc3c2)ncc1CN1CCC1` [Compound 259] displayed a melting point of 195 °C. Moreover, the IC50 in series [1] came out at 2600 nM.
`CN(C)Cc1cnc(-c2ccn3c(-c4cccc(NC(=O)NCC(F)(F)F)c4)cnc3c2)nc1N` [Compound 260] showed a melting point of 130 °C. Further, in series [1], the inhibition at 1 µM was 0%.
Molecule `Nc1nnc(-c2ccn3c(-c4cccc(NC(=O)NCC(F)(F)F)c4)cnc3c2)s1` [Compound 261] registered a melting point above 260 °C. In addition, in series [1], the inhibition at 10 µM was 0%.
In the same order, the values of `O=C(NCC(F)(F)F)Nc1cccc(-c2cnc3cc(C#Cc4nccn4CCO)ccn23)c1` [Compound 262] are 228 °C and 20%.
For `CCNC(=O)Nc1cccc(-c2cnc3cc(C#Cc4cncn4C)ccn23)c1` [Compound 264], the melting point came to 163 °C. In addition, in series [1], the inhibition at 10 µM was determined as 25%. In addition, the IC50 in series [2] amounted to 0.31 µM.
Consider `Cn1cncc1C#Cc1ccn2c(-c3cncc(NC(=O)NCC(F)(F)F)c3)cnc2c1` [Compound 265], for which the melting point was above 250 °C. For the same molecule, on VEGFR2, the IC50 was above 30000 nM.
For `Cn1cncc1C#Cc1ccn2c(-c3cccc(NC(N)=O)c3)cnc2c1` [Compound 267], the melting point was determined as 162 °C. In addition, the inhibition at 10 µM in series [1] is 55%.
`NC(=O)Nc1cccc(-c2cnc3cc(-c4nncs4)ccn23)c1` [Compound 268] came in with a melting point of 259 °C. Besides, the inhibition at 3 µM in series [1] came out at 23.5%. Moreover, in series [2], the IC50 stood at 1.83 µM.
In the case of `O=C(NCC(F)(F)F)Nc1cccc(-c2cnc3cc(-c4nccc(N5CCN(CCO)CC5)n4)ccn23)c1` [Compound 270], the melting point came to 179.8 °C. For the same molecule, in series [1], the inhibition at 3 µM worked out at 16%.
As to `NCC1CCN(c2ccc(-c3ccn4c(-c5cccc(NC(=O)NCC(F)(F)F)c5)cnc4c3)cn2)CC1` [Compound 271], the melting point came out at 80 °C. In addition, the IC50 in the series with Ba/F3-TEL-FGFR3 cells came to 63 nM. In series [1], the IC50 was 120 nM. Besides, the inhibition at 0.001 µM at FGFR3 was 59%.
`CN(C)S(=O)(=O)NCC1CCN(c2ccc(-c3ccn4c(-c5cccc(NC(=O)NCC(F)(F)F)c5)cnc4c3)cn2)CC1` [Compound 272] gave a melting point of 145 °C. Further, in the series with Ba/F3-TEL-FGFR3 cells, the IC50 turned out to be 51 nM. For the same molecule, the IC50 in series [1] was found to be 200 nM. Also, the inhibition at 0.00097 µM on FGFR3 is 51%.
Turning to `CC(C)COC(=O)Nc1nc(-c2ccn3c(-c4cccc(NC(=O)NCC(F)(F)F)c4)cnc3c2)ncc1F` [Compound 273], the melting point was 215.2 °C. Moreover, at VEGFR2, the inhibition at 1 µM came to 40%. For the same molecule, in series [1], the inhibition at 10 µM stood at 43%.
The molecule `NCc1cc(NC(=O)NCC(F)(F)F)cc(-c2cnc3cc(-c4ccnc(C(F)(F)F)n4)ccn23)c1` [Compound 274] registered a melting point of 190 °C. Besides, the inhibition at 1 µM on VEGFR2 turned out to be 55%.
In turn, `O=C(NCC(F)(F)F)Nc1cccc(-c2cnc3cc(-c4ncc(CO)cn4)ccn23)c1` [Compound 276] returned a melting point of 222 °C. Moreover, the inhibition at 1 µM in series [1] came out at 0%.
The molecule `CC(O)c1cnc(-c2ccn3c(-c4cccc(NC(=O)NCC(F)(F)F)c4)cnc3c2)nc1` (centres unmarked) [Compound 278] registered a melting point of 224 °C. Moreover, in series [1], the inhibition at 1 µM was determined as 0%.
On to `CS(=O)(=O)Nc1nc(-c2ccn3c(-c4cccc(NC(=O)NCC(F)(F)F)c4)cnc3c2)ncc1F` [Compound 279], for which the melting point is above 350 °C. For the same molecule, the inhibition at 10 µM in series [1] stood at 7%.
